The text below walks through data of patent US9096589B2, “Heteroaromatic phenylimidazole derivatives as PDE10A enzyme inhibitors” (H. Lundbeck A/S, priority 2009, dated 2015).

As a reminder, the IC50 is the midpoint of a concentration-inhibition curve. Read a high IC50 as a need for much substance.

Sequence of PDE10A (Q9Y233 716-1055): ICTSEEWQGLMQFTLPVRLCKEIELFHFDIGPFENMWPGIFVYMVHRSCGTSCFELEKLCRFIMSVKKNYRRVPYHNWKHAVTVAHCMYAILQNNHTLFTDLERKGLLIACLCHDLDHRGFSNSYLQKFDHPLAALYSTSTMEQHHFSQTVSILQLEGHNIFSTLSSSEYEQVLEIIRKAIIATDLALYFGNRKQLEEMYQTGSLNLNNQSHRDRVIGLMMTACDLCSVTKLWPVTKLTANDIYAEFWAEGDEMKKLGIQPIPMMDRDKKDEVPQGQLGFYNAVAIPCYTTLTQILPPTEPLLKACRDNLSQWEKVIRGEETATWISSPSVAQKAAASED

This experiment has as its target PDE10A (Homo sapiens (Human), UniProt Q9Y233). Nature of the experiment: PDE10A inhibition assay. Format: biochemical. The method, then:
Active PDE10A enzyme is prepared in a number of ways for use in PDE assays (Loughney, K. et al. Gene 1999, 234, 109-117; Fujishige, K. et al. Eur J. Biochem. 1999, 266, 1118-1127 and Soderling, S. et al. Proc. Natl. Acad. Sci. 1999, 96, 7071-7076). PDE10A can be expressed as full-length proteins or as truncated proteins, as long as they express the catalytic domain. PDE10A can be prepared in different cell types, for example insect cells or E. coli. An example of a method to obtain catalytically active PDE10A is as follows: The catalytic domain of human PDE10A (amino acids 440-779 from the sequence with accession number NP 006652) is amplified from total human brain total RNA by standard RT-PCR and is cloned into the BamH1 and Xho1 sites of the pET28a vector (Novagen). Expression in coli is performed according to standard protocols. Briefly, the expression plasmids are transformed into the BL21(DE3) E. coli strain, and 50 mL cultures inoculated with the cells allowed to grow to an OD600 of 0.4-0.6 before protein expression is induced with 0.5 mM IPTG. Following induction, the cells are incubated overnight at room temperature, after which the cells are collected by centrifugation. Cells expressing PDE10A are resuspended in 12 mL (50 mM TRIS-HCl-pH8.0, 1 mM MgCl2 and protease inhibitors). The cells are lysed by sonication, and after all cells are lysed, TritonX100 is added according to Novagen protocols.
A PDE10A assay may for example, be performed as follows: The assay is performed in 60 uL samples containing a fixed amount of the relevant PDE enzyme (sufficient to convert 20-25% of the cyclic nucleotide substrate); a buffer (50 mM HEPES7.6; 10 mM MgCl2; 0.02% Tween20), 0.1 mg/ml BSA, 225 pCi of ^3H-labelled cyclic nucleotide substrate, tritium labeled cAMP to a final concentration of 5 nM and varying amounts of inhibitors. Reactions are initiated by addition of the cyclic nucleotide substrate, and reactions are allowed to proceed for one hr at room temperature before being terminated through mixing with 15 uL 8 mg/mL yttrium silicate SPA beads (Amersham). The beads are allowed to settle for one hr in the dark before the plates are counted in a Wallac 1450 Microbeta counter. The measured signal can be converted to activity relative to an uninhibited control (100%) and IC50 values can be calculated using the Xlfit extension to EXCEL.
In the case of `Cc1cc(C)n2cc(CCc3nc(-c4cncs4)cn3CC(O)c3ccc(Cl)cc3)nc2n1` (centres unmarked) [1-(4-Chloro-phenyl)-2-{2-[2-(5,7-dimethyl-imidazo[1,2-a]pyrimidin-2-yl)-ethyl]-4-thiazol-5-yl-imidazol-1-yl}-ethanol], the IC50 is 5.7 nM. That is a single-digit nanomolar value. Next, `COCC(O)Cn1cc(-c2cccs2)nc1CCc1nc2cccc(C)n2n1` (centres unmarked) [1-Methoxy-3-{2-[2-(5-methyl-[1,2,4]triazolo[1,5-a]pyridin-2-yl)-ethyl]-4-thiophen-2-yl-imidazol-1-yl}-propan-2-ol]: 7.5 nM; `COCC(O)Cn1cc(-c2cccs2)nc1CCc1nc2c(C)cccn2n1` (centres unmarked) [1-Methoxy-3-{2-[2-(8-methyl-[1,2,4]triazolo[1,5-a]pyridin-2-yl)-ethyl]-4-thiophen-2-yl-imidazol-1-yl}-propan-2-ol]: 8.4 nM; `COCC(O)Cn1cc(-c2cncs2)nc1CCc1cn2c(C)cc(C)nc2n1` (centres unmarked) [1-{2-[2-(5,7-Dimethyl-imidazo[1,2-a]pyrimidin-2-yl)-ethyl]-4-thiazol-5-yl-imidazol-1-yl}-3-methoxy-propan-2-ol]: 58 nM. Regarding `Cc1cc(C)n2cc(CCc3nc(-c4cccs4)cn3CC(O)CF)nc2n1` (centres unmarked) [1-{2-[2-(5,7-Dimethyl-imidazo[1,2-a]pyrimidin-2-yl)-ethyl]-4-thiophen-2-yl-imidazol-1-yl}-3-fluoro-propan-2-ol], half-maximal inhibition (IC50) was put at 14 nM.

Take `COCC(O)Cn1cc(-c2cccs2)nc1CCc1cn2c(C)cc(C)nc2n1` (centres unmarked) [1-{2-[2-(5,7-Dimethyl-imidazo[1,2-a]pyrimidin-2-yl)-ethyl]-4-thiophen-2-yl-imidazol-1-yl}-3-methoxy-propan-2-ol]: half-maximal inhibition (IC50) required 7.9 nM.

In the case of `Cc1cc(C)n2cc(CCc3nc(-c4cccs4)cn3C3CCCC3)nc2n1` [2-[2-(1-Cyclopentyl-4-thiophen-2-yl-1H-imidazol-2-yl)-ethyl]-5,7-dimethyl-imidazo[1,2-a]pyrimidine], the IC50 was 46 nM.

In turn, `Cc1cc(C)n2cc(CCc3nc(-c4cccs4)cn3CC(C)C)nc2n1` [2-[2-(1-Isobutyl-4-thiophen-2-yl-1H-imidazol-2-yl)-ethyl]-5,7-dimethyl-imidazo[1,2-a]pyrimidine] gave an IC50 of 12 nM.

With `Cc1cc(C)n2cc(CCc3nc(-c4cccs4)cn3C(C)C)nc2n1` [2-[2-(1-Isopropyl-4-thiophen-2-yl-1H-imidazol-2-yl)-ethyl]-5,7-dimethyl-imidazo[1,2-a]pyrimidine], the IC50 was determined as 160 nM. The compound `Cc1ncc(C)n2nc(CCc3nc(-c4ccoc4)cn3C)nc12` [2-[2-(4-Furan-3-yl-1-methyl-1H-imidazol-2-yl)-ethyl]-5,8-dimethyl-[1,2,4]triazolo[1,5-a]pyrazine] showed an IC50 of 2.9 nM. Consider `COc1ccc(C)n2nc(CCc3nc(-c4ccoc4)cn3C)nc12` [2-[2-(4-Furan-3-yl-1-methyl-1H-imidazol-2-yl)-ethyl]-8-methoxy-5-methyl-[1,2,4]triazolo[1,5-a]pyridine], for which the IC50 is 4 nM.

Regarding `Cc1cc(C)n2cc(/C=C/c3nc(-c4ccco4)cn3C)nc2n1` [2-[(E)-2-(4-Furan-2-yl-1-methyl-1H-imidazol-2-yl)-vinyl]-5,7-dimethyl-imidazo[1,2-a]pyrimidine], the IC50 amounted to 25 nM.

In the case of `Cc1cc(C)n2cc(/C=C/c3nc(-c4ccoc4)cn3C)nc2n1` [2-[(E)-2-(4-Furan-3-yl-1-methyl-1H-imidazol-2-yl)-vinyl]-5,7-dimethyl-imidazo[1,2-a]pyrimidine], it took 140 nM to reach half-maximal inhibition (IC50). Compound `COc1cccn2nc(/C=C/c3nc(-c4ccoc4)cn3C)nc12` [2-[(E)-2-(4-Furan-3-yl-1-methyl-1H-imidazol-2-yl)-vinyl]-8-methoxy-[1,2,4]triazolo[1,5-a]pyridine] yielded an IC50 of 47 nM. Turning to `COCCn1cc(-c2cncs2)nc1CCc1cn2c(C)cc(C)nc2n1` [2-{2-[1-(2-Methoxy-ethyl)-4-thiazol-5-yl-1H-imidazol-2-yl]-ethyl}-5,7-dimethyl-imidazo[1,2-a]pyrimidine], the IC50 is 210 nM. Consider `COCCn1cc(-c2cccs2)nc1CCc1cn2c(C)cc(C)nc2n1` [2-{2-[1-(2-Methoxy-ethyl)-4-thiophen-2-yl-1H-imidazol-2-yl]-ethyl}-5,7-dimethyl-imidazo[1,2-a]pyrimidine], for which the IC50 turned out to be 130 nM.

Consider `Cc1cccc2nc(/C=C/c3nc(-c4ccco4)cn3COCC[Si](C)(C)C)nn12` [2-{(E)-2-[4-Furan-2-yl-1-(2-trimethylsilanyl-ethoxymethyl)-1H-imidazol-2-yl]-vinyl}-5-methyl-[1,2,4]triazolo[1,5-a]pyridine], for which 46 nM corresponded to half-maximal inhibition (IC50).

In the case of `Cc1cccc2nc(CCc3nc(-c4cccs4)cn3C[C@@H](O)CN(C)CCC#N)nn12` [3-[((S)-2-Hydroxy-3-{2-[2-(5-methyl-[1,2,4]triazolo[1,5-a]pyridin-2-yl)-ethyl]-4-thiophen-2-yl-imidazol-1-yl}-propyl)-methyl-amino]-propionitrile], the IC50 was 10000 nM. This IC50 is about 220-fold higher than that of the compound before. As to `COc1ccc(C)n2nc(CCc3nc(-c4cccs4)cn3CCCC#N)nc12` [4-{2-[2-(8-Methoxy-5-methyl-[1,2,4]triazolo[1,5-a]pyridin-2-yl)-ethyl]-4-thiophen-2-yl-imidazol-1-yl}-butyronitrile], the 50% inhibitory concentration (IC50) worked out at 1.7 nM. In the case of `Cc1cc(C)n2nc(CCc3nc(-c4cccnc4)cn3C)nc2n1` [5,7-Dimethyl-2-[2-(1-methyl-4-pyridin-3-yl-1H-imidazol-2-yl)-ethyl]-[1,2,4]triazolo[1,5-a]pyrimidine], the half-maximal inhibitory concentration (IC50) is 44 nM. This IC50 lies about 26-fold higher than the previous one. Take `Cc1cc(C)n2nc(CCc3nc(-c4cccs4)cn3C)nc2n1` [5,7-Dimethyl-2-[2-(1-methyl-4-thiophen-2-yl-1H-imidazol-2-yl)-ethyl]-[1,2,4]triazolo[1,5-a]pyrimidine]: the IC50 was determined as 4.2 nM. As to `Cc1cc(C)n2cc(CCc3nc(-c4cccs4)cn3C)nc2n1` [5,7-Dimethyl-2-[2-(1-methyl-4-thiophen-2-yl-1H-imidazol-2-yl)-ethyl]-imidazo[1,2-a]pyrimidine], the IC50 came to 45 nM. `Cc1cc(C)n2cc(CCc3nc(-c4ccsc4)cn3C)nc2n1` [5,7-Dimethyl-2-[2-(1-methyl-4-thiophen-3-yl-1H-imidazol-2-yl)-ethyl]-imidazo[1,2-a]pyrimidine] yielded an IC50 of 33 nM. As for `CCCn1cc(-c2cccs2)nc1CCc1cn2c(C)cc(C)nc2n1` [5,7-Dimethyl-2-[2-(1-propyl-4-thiophen-2-yl-1H-imidazol-2-yl)-ethyl]-imidazo[1,2-a]pyrimidine], the IC50 came out at 3.4 nM. For the compound `Cc1cc(C)n2cc(/C=C/c3nc(-c4cnccn4)cn3C)nc2n1` [5,7-Dimethyl-2-[(E)-2-(1-methyl-4-pyrazin-2-yl-1H-imidazol-2-yl)-vinyl]-imidazo[1,2-a]pyrimidine], inhibition was half-maximal at 340 nM (IC50). As to `Cc1cc(C)n2cc(/C=C/c3nc(-c4cccnc4)cn3C)nc2n1` [5,7-Dimethyl-2-[(E)-2-(1-methyl-4-pyridin-3-yl-1H-imidazol-2-yl)-vinyl]-imidazo[1,2-a]pyrimidine], 220 nM corresponded to half-maximal inhibition (IC50). This IC50 lies about 1.5-fold lower than the previous one. The compound `Cc1cc(C)n2cc(/C=C/c3nc(-c4cscn4)cn3C)nc2n1` [5,7-Dimethyl-2-[(E)-2-(1-methyl-4-thiazol-4-yl-1H-imidazol-2-yl)-vinyl]-imidazo[1,2-a]pyrimidine] yielded an IC50 of 180 nM.

Turning to `Cc1cc(C)n2cc(/C=C/c3nc(-c4cncs4)cn3C)nc2n1` [5,7-Dimethyl-2-[(E)-2-(1-methyl-4-thiazol-5-yl-1H-imidazol-2-yl)-vinyl]-imidazo[1,2-a]pyrimidine], the IC50 was found to be 97 nM. Next, `Cc1cc(C)n2cc(/C=C/c3nc(-c4cccs4)cn3C)nc2n1` [5,7-Dimethyl-2-[(E)-2-(1-methyl-4-thiophen-2-yl-1H-imidazol-2-yl)-vinyl]-imidazo[1,2-a]pyrimidine]: 8.8 nM; `Cc1cc(C)n2cc(/C=C/c3nc(-c4ccsc4)cn3C)nc2n1` [5,7-Dimethyl-2-[(E)-2-(1-methyl-4-thiophen-3-yl-1H-imidazol-2-yl)-vinyl]-imidazo[1,2-a]pyrimidine]: 56 nM. `Cc1cc(C)n2cc(CCc3nc(-c4cccs4)cn3CCN3CCOCC3)nc2n1` [5,7-Dimethyl-2-{2-[1-(2-morpholin-4-yl-ethyl)-4-thiophen-2-yl-1H-imidazol-2-yl]-ethyl}-imidazo[1,2-a]pyrimidine] came in with an IC50 of 36 nM. `Cc1cc(C)n2cc(CCc3nc(-c4cccs4)cn3CCC(C)C)nc2n1` [5,7-Dimethyl-2-{2-[1-(3-methyl-butyl)-4-thiophen-2-yl-1H-imidazol-2-yl]-ethyl}-imidazo[1,2-a]pyrimidine]: the IC50 was found to be 6.8 nM.
